Laboratory results from PubChem BioAssay (NCI).
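1) Cells in 96-well plates. 2) Compound, 48 h, 5 concentrations. 3) Linear interpolation between surrounding doses. 4) Unreached endpoint = highest concentration. TGI is the concentration that stops growth completely.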

Columns and labels:
Experiment in all cases: DTP human tumour cell line panel, 48 h
[1] = tested on: LOX IMVI melanoma
[2] = tested on: RXF 393 renal
[3] = tested on: SK-MEL-5 melanoma
[4] = tested on: MDA-MB-435
[5] = tested on: UO-31 renal
[6] = tested on: SF-295 CNS
[7] = tested on: PC-3 prostate
[8] = tested on: UACC-62 melanoma
[9] = tested on: T-47D breast
[10] = tested on: HOP-62 NSCLC
[11] = tested on: HS 578T breast
[12] = tested on: NCI-H23 lung
[13] = tested on: MDA-N
[14] = tested on: SNB-75 CNS
[15] = tested on: CAKI-1 renal
[16] = tested on: NCI-H522 lung
[17] = tested on: NCI-H460 lung
[18] = tested on: HCC-2998 colon
[19] = tested on: SW-620 colon
[20] = tested on: MCF7 breast
[21] = tested on: OVCAR-3 ovarian
[22] = tested on: SF-539 CNS
[23] = tested on: SN12C renal
[24] = tested on: U251 CNS
[25] = tested on: SK-MEL-28 melanoma
[26] = tested on: TK-10 renal
[27] = tested on: MALME-3M melanoma
[28] = tested on: SK-MEL-2 melanoma
[29] = tested on: IGROV1 ovarian
[30] = tested on: OVCAR-4 ovarian
[31] = tested on: OVCAR-8 ovarian
[32] = tested on: MOLT-4 leukemia
[33] = tested on: MDA-MB-231 breast
[34] = tested on: HCT-116 colon
[35] = tested on: OVCAR-5 ovarian
[36] = tested on: A549 NSCLC
[37] = tested on: NCI/ADR-RES ovarian
[38] = tested on: EKVX NSCLC
[39] = tested on: CCRF-CEM leukemia
[40] = tested on: A498 renal
[41] = tested on: HCT-15 colon
[42] = tested on: SR leukemia
[43] = tested on: HL-60(TB) leukemia
[44] = tested on: DU-145 prostate
[45] = tested on: M14 melanoma
[46] = tested on: K-562 leukemia
[47] = tested on: SNB-19 CNS
[48] = tested on: ACHN renal
[49] = tested on: HT29 colon
[50] = tested on: SF-268 CNS
[51] = tested on: SK-OV-3 ovarian
[52] = tested on: RPMI-8226 leukemia
[53] = tested on: COLO 205 colon
[54] = tested on: NCI-H226 lung
[55] = tested on: BT-549 breast
[56] = tested on: 786-0 renal
[57] = tested on: KM12 colon
[58] = tested on: HOP-92 NSCLC
[59] = tested on: UACC-257 melanoma

## C[N+](C)(N)c1nc(N)c(C#N)c(C#N)c1C#N
[1]
  TGI: > 10 µM
[2]
  TGI: > 10 µM
[3]
  TGI: > 10 µM
[4]
  TGI: > 10 µM
[5]
  TGI: > 10 µM
[6]
  TGI: > 10 µM
[7]
  TGI: > 10 µM
[8]
  TGI: > 10 µM
[9]
  TGI: > 10 µM
[10]
  TGI: > 10 µM
[11]
  TGI: > 10 µM
[12]
  TGI: > 10 µM
[13]
  TGI: > 10 µM
[14]
  TGI: > 10 µM
[15]
  TGI: > 10 µM
[16]
  TGI: > 10 µM
[17]
  TGI: > 10 µM
[18]
  TGI: > 10 µM
[19]
  TGI: > 10 µM
[20]
  TGI: > 10 µM
[21]
  TGI: > 10 µM
[22]
  TGI: > 10 µM
[23]
  TGI: > 10 µM
[24]
  TGI: > 10 µM
[25]
  TGI: > 10 µM
[26]
  TGI: > 10 µM
[27]
  TGI: > 10 µM
[28]
  TGI: > 10 µM
[29]
  TGI: > 10 µM
[30]
  TGI: > 10 µM
[31]
  TGI: > 10 µM
[32]
  TGI: > 10 µM
[33]
  TGI: > 10 µM
[34]
  TGI: > 10 µM
[35]
  TGI: > 10 µM
[36]
  TGI: > 10 µM
[37]
  TGI: > 10 µM
[38]
  TGI: > 10 µM
[39]
  TGI: > 10 µM
[40]
  TGI: > 10 µM
[41]
  TGI: > 10 µM
[42]
  TGI: > 10 µM
[43]
  TGI: > 10 µM
[44]
  TGI: > 10 µM
[45]
  TGI: > 10 µM
[46]
  TGI: > 10 µM
[47]
  TGI: > 10 µM
[48]
  TGI: > 10 µM
[49]
  TGI: > 10 µM
[50]
  TGI: > 10 µM
[51]
  TGI: > 10 µM
[52]
  TGI: > 10 µM
[53]
  TGI: > 10 µM
[54]
  TGI: > 10 µM

## COCCNC1CCC2(SCCS2)c2[nH]c3ccccc3c21 (stereo not drawn)
[1]
  TGI: 36 µM
[2]
  TGI: 40.4 µM
[3]
  TGI: 57.4 µM
[4]
  TGI: 62.1 µM
[6]
  TGI: > 100 µM
[7]
  TGI: > 100 µM
[10]
  TGI: > 100 µM
[11]
  TGI: > 100 µM
[12]
  TGI: > 100 µM
[13]
  TGI: 57.9 µM
[14]
  TGI: > 100 µM
[15]
  TGI: > 100 µM
[16]
  TGI: > 100 µM
[55]
  TGI: 38 µM
[17]
  TGI: > 100 µM
[18]
  TGI: > 100 µM
[19]
  TGI: > 100 µM
[20]
  TGI: 39.3 µM
[21]
  TGI: 82.1 µM
[56]
  TGI: > 100 µM
[22]
  TGI: 50.7 µM
[23]
  TGI: 91.9 µM
[24]
  TGI: > 100 µM
[57]
  TGI: 40.5 µM
[25]
  TGI: > 100 µM
[58]
  TGI: 50.3 µM
[26]
  TGI: 44.6 µM
[28]
  TGI: > 100 µM
[29]
  TGI: > 100 µM
[30]
  TGI: > 100 µM
[31]
  TGI: > 100 µM
[32]
  TGI: > 100 µM
[33]
  TGI: 54.1 µM
[34]
  TGI: > 100 µM
[35]
  TGI: > 100 µM
[36]
  TGI: > 100 µM
[37]
  TGI: > 100 µM
[59]
  TGI: 39.5 µM
[38]
  TGI: > 100 µM
[39]
  TGI: 88.3 µM
[40]
  TGI: 86.1 µM
[41]
  TGI: > 100 µM
[42]
  TGI: 69.9 µM
[43]
  TGI: 45.8 µM
[44]
  TGI: > 100 µM
[45]
  TGI: 30.4 µM
[46]
  TGI: > 100 µM
[47]
  TGI: > 100 µM
[48]
  TGI: > 100 µM
[49]
  TGI: > 100 µM
[50]
  TGI: > 100 µM
[52]
  TGI: 41.4 µM
[53]
  TGI: 82.5 µM
[54]
  TGI: > 100 µM
